Data from patent publication US20240150755A1, “MODULATING REGULATORY T CELL FUNCTION IN AUTOIMMUNE DISEASE AND CANCER” (Salk Institute for Biological Studies, priority 2021, published 2024).

Columns and labels:
[1] = system: MC38 colorectal tumor cell line; test: Adoptive T cell transfer and MC38 tumor model; type: in vivo, mouse
Description: Similar to the “Adoptive T cells transfer-induced colitis model,” Treg cells were activated in vitro and transduced with pSIRG-GFP expressing sgNT or sgBrd9. Four days after transduction, the GFP+ transduced Treg were FACS sorted. Concurrently, Treg depleted CD4 and CD8 T cells isolated from Rosa-Cas9/Foxp3^Thy1.1 mice were used as effector T cells. A total of 1 million pSIRG-sgRNA transduced GFP+ Treg cells, 1 million effector CD8 T cells, and 2 million Treg-depleted CD4 T cells were mixed and transferred into Rag1^−/− recipient mice. On the following day, mice were implanted with 0.5 million MC38 cells by subcutaneous injection on the flank of mouse. When palpable tumor appeared, tumor size was measured every two day by electronic calipers. At the end point, spleen and tumor were collected for immune profiling. For tumor processing, tumor tissues were minced into small pieces and digested with 0.5 mg/mL Collagenase IV (Sigma #C5138) and DNAase I (Roche #4716728001) for 20 minutes and passed through […] cell strainer to collect single cell suspension. Isolated cells were stimulated with PMA/Ionomycin and GolgiPlug™ for 5 hours, and then were subjected to Foxp3 and cytokines staining with eBioscience® Fix/Perm buffer (eBioscience #00-5523-00).

Treg cells = test: In vitro Treg suppression assay; type: cell-based, mouse; settings: sgRNA transduced Treg cells plus MIGR-Foxp3
Description: Treg cells were transduced by retrovirus expressing sgRNA targeting gene of interest and cultured in X-VIVO® complete media supplemented with IL-2 (500 U/ml). Four days after transduction, transduced cells were […] a fluorescence-activated cell sorter (FACS). CD45.1+ naive CD4 T cells (CD4^+CD25^−CD44^loCD62^hi) were labeled with CellTrace™ Violet (Thermo Fisher Scientific #C34571) in different ratio in the presence of irradiated T cell depleted spleen cells as antigen-presenting cells (APC). Three days later, Treg suppression function was measured by the percentage of non-dividing cells within the CD45.1^+ effector T cell population. For dBRD9 treatment experiment, dBRD9 was first dissolved in DMSO (10 mM stock) and added into Treg:Teff:APC mixture at 2.5 μM. For Foxp3 overexpression rescue experiment, Treg cells were first transduced with sgNT or sgBrd9 at 24 hour post-activation, and then transduced with MIGR empty vector or MIGR-Foxp3 at 48 hour post-activation. Double transduced Treg cells were FACS sorted on day 4 based on NGFR+ and GFP+ markers and then mixed with CellTrace™ labeled effector T cells in the presence of APC. Treg suppression readout was measured after three days of co-culture.

Foxp3-bound sites = test: Foxp3 ChIP-seq in Treg cells; type: cell-based, mouse
Description: For large scale Treg culture, Tregs were first expanded in Rosa-Cas9/Foxp3^Thy1.1 mice by injecting IL-2:IL-2 antibody immune complex according protocol described in Webster et. al (J Exp Med 206, 751-760, 2009). Spleen and lymph node Treg cells were labeled with PE-conjugated Thy1.1 antibody and isolated by magnetic selection using anti-PE microbeads (Mitenyl #130-048-801). All isolated Treg cells were activated by plate bound anti-CD3 and anti-CD28 antibodies and cultured with X-VIVO® 20 media (LONZA #04-448Q) supplemented by 1× Pen/Strep, 1× Sodium pyruvate, 1× HEPES, 1× GlutaMax™, 55 μM beta-mercaptoethanol in the presence of IL-2 at 500 units/mL. For experiments with Brd9 degradation, Treg cells were treated at day 0 with 2.5 μM dBRD9 (Tocris #6606) and cultured for four days for RNA- and ChIP-seq and 0.16-10 μM treated at day 0 and cultured dBRD9 for four days for Foxp3 MFI, cell viability and cell proliferation assays. Live cells were enriched by Ficoll-Paque® 1.084 (GE Health 17-5446-02) for RNA-seq and ChIP-seq.
Treg cells were collected and cross-linked first in 3 mM disuccinimidyl glutarate (DSG) in 1×PBS for thirty minutes then in 1% formaldehyde for another ten minutes, both at RT, for chromatin binding protein ChIP or in 1% formaldehyde only for histone modification ChIP. After quenching the excess cross-linker with a final concentration of 125 mM glycine, the cells were washed in 1× PBS, pelleted, flash-frozen in liquid nitrogen, and stored at −80° C. Cell pellets were thawed on ice and incubated in lysis solution (50 mM HEPES-KOH pH 8, 140 mM NaCl, 1 mM EDTA, 10% glycerol, 0.5% NP40, 0.25% Triton X-100) for ten minutes. The isolated nuclei were washed with wash solution (10 mM Tris-HCl pH 8, 1 mM EDTA, 0.5 mM EGTA, 200 mM NaCl) and shearing buffer (0.1% SDS, 1 mM EDTA, 10 mM Tris-HCl pH 8) then sheared in a Covaris® E229 sonicator for ten minutes to generate DNA fragments between ˜200-1000 base pairs (bp). After clarification of insoluble material by centrifugation, the chromatin was immunoprecipitated overnight at 4° C. with antibodies against Foxp3, Smarca4, Brd9, Phf10 or H3K27ac. The next day, the antibody bound DNA was incubated with Protein A+G Dynabeads™ (Invitrogen) in ChIP buffer (50 mM HEPES-KOH pH 7.5, 300 mM NaCl, 1 mM EDTA, 1% Triton X-100, 0.1% DOC, 0.1% SDS), washed and treated with Proteinase K and RNase A. Cross-linking was reversed by incubation at 55° C. for two and a half hours. Purified ChIP DNA was used for library generation (NuGen Ovation® Ultralow Library System V2) according to manufacturer's instructions for subsequent sequencing.
Single-end 50 bp or paired-end 42 bp reads were aligned to mouse genome mm10 using STAR alignment tool (V2.5) (Dobin et al., Bioinformatics 29:15-21, 2013). ChIP-Seq peaks were called using findPeaks within HOMER using parameters for histone (-style histone) or transcription factor (-style factor) (homer.ucsd.edu/homer/index.html). Peaks were called when enriched >two-fold over input and >four-fold over local tag counts, with FDR 0.001. For histone ChIP, peaks within a 1000 bp range were stitched together to form regions. Differential ChIP peaks were found by merging peaks from control and experiment groups and called using getDiffExpression.pl with fold change ≥1.5 or ≤−1.5, Poisson p value<0.0001.

[2] = transferred Treg population, vs sgNT

## sgBrd9: sgRNA targeting Brd9, ATTAACCGGTTTCTCCCGGG (SEQ ID NO: 12) (expressed or natural sequence)
[1]; Rag1^−/− mice receiving sgRNA transduced Treg cells vs sgNT Treg cells
  tumor growth: significantly slower
[1]; relative to sgNT Treg cells
  percentage of transferred Treg cells: reduced
[1]; [2]
  GFP^+Foxp3^− ex-Treg population: increase
  percentage of ex-Treg cells producing IFN-γ: higher percentage
[1]; tumor and spleen, sgBrd9 versus sgNT
  increase in the ratio of CD8 T cells to Treg cells: 2-3 fold
[1]; vs sgNT Treg cells
  CD4 and CD8 T cell tumor infiltration: significantly increased
[1]; vs sgNT Treg condition
  percentage of IFN-γ producing intra-tumor CD4 and CD8 T cells: significantly greater
Treg cells
  Treg suppressor activity with ectopic expression of Foxp3: partially restored Treg suppressor activity to a level comparable to sgNT controls
Foxp3-bound sites; sgBrd9 Treg cells plus ectopic Foxp3
  Brd9-dependent sites where binding was not rescued by restoring Foxp3 expression: ~71%
Foxp3-bound sites; sgRNA transduced Treg cells
  Foxp3 binding at CNS2/CNS0: marked reduction of Foxp3 binding at CNS2/CNS0
Foxp3-bound sites; sgRNA transduced Treg cells plus MIGR-Foxp3
  Foxp3 binding with ectopic Foxp3 expression: partially restored Foxp3 binding
Foxp3-bound sites; sgRNA transduced Treg cells, FC1.5, Poisson p<0.0001
  Foxp3 binding at a subset of Foxp3 sites (Brd9-dependent sites): significantly reduced
